US12022827B2, “Compositions and methods to reduce dicamba volatility and provide plant essential nutrients” (THE BOARD OF TRUSTEES OF THE UNIVERSITY OF ARKANSAS, priority 2019, dated 2024)

Legend:
[1] = system: dicamba-sensitive soybean; assay: Low-tunnel field trial of dicamba volatilization, injury to dicamba-sensitive soybean (2019); format: in vivo; conditions: FIG. 1
Description: (§1) A field trial was conducted to determine the effect of adding potassium borate to the herbicide dicamba with respect to the volatilization of dicamba and the movement of dicamba within the environment. In this trial, potassium borate was added to two highly volatile formulations of dicamba, Clarity® (BASF) and Clash™ (Nufarm Americas, Inc), in combination with glyphosate (Roundup PowerMax II®). […] The formulations were applied to a moistened silt loam soil in contained in two plastic trays and placed under 20-foot long tunnels between two rows of dicamba-sensitive (i.e., non-tolerant) soybean crop. […] Soybean injury was visually assessed at 14 and 21 days after initiation of the experiment. Likewise, the distance from the center of the tunnel to the furthest observed 5% level of injury was measured. Air samplers in the center of each tunnel were also used to quantify dicamba volatilization. […]
(§2) In order to evaluate a proprietary volatility reducing agent on several dicamba formulations, two low-tunnel trials were conducted in Fayetteville, Arkansas in 2019. […] Dicamba products evaluated included the diglycolamine (DGA) salt of dicamba (Xtendimax) plus a commercial volatility reduction agent (VaporGrip), DGA salt of dicamba (Clarity) with the volatility reduction agent BK3O3, the dimethylamine (DMA) salt of dicamba (Vanquish), and the DMA salt with BK3O3 along with a nontreated. […]

[2] = pH of tank mix, 2019 field trial; format: physicochemical
Description: as §1, §2

[3] = Kborate concentration of 0.025 molar, even when mixed with the potassium salt of glyphosate
Description: To further evaluate the efficacy of potassium tetraborate tetrahydrate in reducing volatilization of dicamba, a series of low-tunnel trials were conducted in Fayetteville, Arkansas in 2020, with each trial replicated twice. Experimental treatments were arranged as a single-factor randomized complete block design with three replications. […] A glufosinate-resistant cultivar (CDZ 4938) was planted on 36-inch spaced rows, serving as a bioindicator to quantify visible injury and distance traveled caused by dicamba volatility. Each low-tunnel placed in the field measured 5 by 20 ft (covering two rows of soybean). All tunnels were covered with transparent plastic to create an environment suitable for volatility and to contain the injury. After all tunnels were placed in the field, moistened flats of soil were placed 0.5 miles from the field and treated. Once treated, two flats were placed into appropriate tunnels between two rows of soybean with one flat on either side of a high-volume air sampler located in the center of each tunnel for 48 hours. […] Immediately following trial initiation, pH of each spray solution was collected and analyzed. For data collection, soybean under each tunnel were divided into eight quadrants of 5 foot in length where visible injury was assessed on a 0 to 100 scale, where 0 equals no injury and 100 equals plant death. […]

[4] = system: soybean glufosinate-resistant cultivar (CDZ 4938); assay: Low-tunnel field trial of dicamba volatilization, visible injury to soybean bioindicator (2020); format: in vivo
Description: To further evaluate the efficacy of potassium tetraborate tetrahydrate in reducing volatilization of dicamba, a series of low-tunnel trials were conducted in Fayetteville, Arkansas in 2020, with each trial replicated twice. Experimental treatments were arranged as a single-factor randomized complete block design with three replications. […] A glufosinate-resistant cultivar (CDZ 4938) was planted on 36-inch spaced rows, serving as a bioindicator to quantify visible injury and distance traveled caused by dicamba volatility. Each low-tunnel placed in the field measured 5 by 20 ft (covering two rows of soybean). All tunnels were covered with transparent plastic to create an environment suitable for volatility and to contain the injury. After all tunnels were placed in the field, moistened flats of soil were placed 0.5 miles from the field and treated. Once treated, two flats were placed into appropriate tunnels between two rows of soybean with one flat on either side of a high-volume air sampler located in the center of each tunnel for 48 hours. Afterwards, the flats of soil, air samplers and tunnels were removed from the field. Immediately following trial initiation, pH of each spray solution was collected and analyzed. For data collection, soybean under each tunnel were divided into […] of 5 foot in length where visible injury was assessed on a 0 to 100 scale, where 0 equals no injury and 100 equals plant death. […] All data were subjected to analysis of variance and means separated using Fisher's protected least significance test (α=0.05)

**Q.** Which “reduction of sensitive soybean injury” value ([1]; potassium borate 30 g/L added, compared to standard tank mixes of dicamba or dicamba+glyphosate) does the source give for `[K+].[K+].[K+].[O-]B([O-])[O-]` [potassium borate] here?
**A.** ≤ 18%

**Q.** What about the “reduction of injury to sensitive soybean” value ([1]; potassium borate added to dicamba, compared to standard tank mixes of dicamba) of the same compound?
**A.** ≤ 18 percentage points

**Q.** What about the “increase in tank mix pH” value ([2]; potassium borate 30 g/L added to various formulations of dicamba mixed with glyphosate) of the same compound?
**A.** 1.9-2.15

**Q.** What about the “increase of pH of tank mixes” value ([2]; potassium borate added to tank mixes comprising glyphosate and various formulations of dicamba) of the same compound?
**A.** ≤ 2.15 pH units

**Q.** Which “pH of the spray solution” value [3] does the source give for “potassium tetraborate tetrahydrate [Kborate]” here?
**A.** above 6.0

**Q.** What about the “reducing volatility of dicamba based on injury to soybean, compared with Kacetate” value ([4]; 0.015 molar concentration of Kborate) of the same compound?
**A.** comparable to 0.05 moles of Kacetate

**Q.** What about the “reducing volatility of a dicamba plus glyphosate mixture, compared with Kacetate” value ([4]; FIGS. 8-10, 21 days after treatment) of the same compound?
**A.** outperformed Kacetate

**Q.** And the “dicamba volatility of dicamba and glufosinate mixtures” value ([4]; Kborate added, FIGS. 11-13, 21 days after treatment)?
**A.** reduced dicamba volatility, more so than did Kacetate

**Q.** What about the “volatilization of a dicamba plus glyphosate mixture based on average and maximum injury ratings and distance to 5% injury to soybean” value ([4]; Kborate concentrations of 0.0125 molar or higher, 21 days after treatment, FIGS. 5-7) of the same compound?
**A.** significantly reduced volatilization

**Q.** Which “average visual injury to soybean in comparison to dicamba plus glyphosate” value ([4]; glufosinate mixed with dicamba, FIG. 11, 21 days after treatment) does the source give for `CP(=O)(O)CCC(N)C(=O)O` (stereo not shown) [glufosinate, 2-amino-4-[hydroxy(methyl)phosphoryl]butanoic acid, reference compound] here?
**A.** increased average visual injury
